Patent US8828988B2 (Tetraphase Pharmaceuticals, Inc., priority 2009, dated 2014)
≈ marks a conversion by molar mass, not a printed value. Like-named read-outs stand apart in the source and are kept apart here. Each block holds one compound with its values, some of them ahead of it.

Columns and labels:
[1] = system: Staphylococcus aureus SA100, ATCC 13709, MSSA, Smith strain; test: MIC assay, SA100; type: cell-based
[2] = system: Escherichia coli EC107, ATCC 25922; test: MIC assay, EC107; type: cell-based
[3] = system: E. faecalis clinical isolates; test: MIC50, MIC90 and MIC range, panel of clinical isolates (Example 20); type: cell-based; conditions: 24 isolates, in µg/mL
Method: (§1) The assays were run as follows.
(§2) Both values, as well as the MIC range (the lowest and highest MIC value observed for a collection of organisms), were determined for the isolates listed in Table 3.

[4] = system: S. aureus clinical isolates; test: as above; type: cell-based; conditions: MRSA, 30 isolates; in µg/mL
Method: as §1, §2

[5] = system: S. pneumoniae clinical isolates; test: as above; type: cell-based; conditions: 19 isolates
Method: as §1, §2

[6] = system: E. coli S30 extract system, coupled in vitro transcription/translation, firefly luciferase readout; test: In vitro transcription/translation (TnT) assay; type: biochemical; conditions: for IC50, in vitro transcription/translation system: E. coli S30 extract, luciferase readout
[7] = system: E. coli ATCC 25922; test: Mouse systemic infection model, E. coli septicemia; conditions: mouse septicemia, E. coli ATCC 25922, treatment one hour post-challenge, survival after 48 hours
[8] = system: S. aureus ATCC 13709 (Smith); test: Mouse systemic infection model, S. aureus septicemia; conditions: mouse septicemia, S. aureus ATCC 13709, intravenous treatment one hour post-challenge, survival after 48 hours
[9] = system: E. coli DH10B(pBAD-tetK), expressing tet(K); test: MIC against recombinant E. coli expressing tet(K); type: cell-based; conditions: for MIC: Escherichia coli; for MIC ratio, TetK induced to uninduced: ratio of TetK induced to uninduced MIC
Source text: (§3) Constructs were transformed into E. coli DH10B for expression. Recombinant strains were pre-induced under optimized conditions with L-arabinose prior to use as inocula in CLSI standardized MIC assays.

[10] = system: E. coli DH10B(pBAD-tetM), expressing tet(M); test: MIC against recombinant E. coli expressing tet(M); type: cell-based; conditions: for MIC: Escherichia coli; for Ratio (TetM induced / Uninduced): ratio of MICs
Source text: as §3

[11] = system: Staphylococcus aureus SA101, ATCC 29213, MSSA; test: MIC assay, SA101; type: cell-based
[12] = system: Staphylococcus aureus SA161, HA-MRSA, tetracycline-resistant, tet(M); test: MIC assay, SA161; type: cell-based; conditions: Table 8, read-out: MIC S. aureus MRSA, tetM
[13] = system: Staphylococcus aureus SA158, tetracycline-resistant tet(K); test: MIC assay, SA158; type: cell-based; conditions: Table 8, read-out: MIC S. aureus tetK
[14] = system: Enterococcus faecalis EF103, ATCC 29212; test: MIC assay, EF103; type: cell-based; conditions: Enterococcus faecalis, ATCC29212; Table 8; read-out: MIC E. faecalis ATCC 29212
[15] = system: Enterococcus faecalis EF159, tetracycline-resistant, tet(M); test: MIC assay, EF159; type: cell-based
[16] = system: Streptococcus pneumoniae SP106, ATCC 49619; test: MIC assay, SP106; type: cell-based
[17] = system: Streptococcus pneumoniae SP160, tetracycline-resistant, tet(M); test: MIC assay, SP160; type: cell-based; conditions: Table 8, read-out: MIC S. pneumoniae tetM
[18] = system: Escherichia coli EC155, tetracycline-resistant, tet(A); test: MIC assay, EC155; type: cell-based
[19] = system: H. influenzae isolates (Eurofins-Medinet, recent clinical isolates); test: MIC50 and MIC90 analysis (Example 22)
[20] = system: S. aureus strains collected from various geographical sources; test: MIC50 and MIC90 analysis (Example 22)
[21] = Table 8, read-out: MIC S. aureus ATCC 29213
[22] = Table 8, read-out: MIC E. faecalis tetM
[23] = ATCC49619, Table 8, read-out: MIC S. pneumoniae ATCC 49619
[24] = ATCC25922, Table 8, read-out: MIC E. coli ATCC 25922
[25] = Table 8, read-out: MIC E. coli tetA

SMILES: CN(C)c1cc(NC(=O)CNC(C)(C)C)c(O)c2c1C[C@H]1C[C@H]3[C@H](N(C)C)C(O)=C(C(N)=O)C(=O)[C@@]3(O)C(O)=C1C2=O [tigecycline, reference compound]
MIC ([1]; read-out: MIC S. aureus ATCC 13709): 0.13 µg/mL (≈ 0.222 µM)
MIC ([2]; ATCC25922, read-out: MIC E. coli ATCC 25922): 0.13 µg/mL (≈ 0.222 µM)
MIC Range [3]: <=0.016-0.13
MIC Range [4]: 0.063-0.25
MIC Range [5]: ≦0.016
TnT IC50 [6]: 0.47 µg/mL
PD50 [7]: 2.1 mg/kg
PD50 [8]: 0.35 mg/kg

SMILES: NCC[C@H](O)C(=O)N[C@@H]1C[C@H](N)[C@@H](O[C@H]2O[C@H](CN)[C@@H](O)[C@H](O)[C@H]2O)[C@H](O)[C@H]1O[C@H]1O[C@H](CO)[C@@H](O)[C@H](N)[C@H]1O [Amikacin, amikacin, reference compound]
MIC ([9]; read-out: MIC, TetK Induced): 8 µg/mL
MIC ([9]; read-out: MIC, Uninduced): 8 µg/mL
MIC ratio, TetK induced to uninduced [9]: 1
Effect of expression of (tet)K on activity ([9]; result in words): unaffected
MIC ([10]; read-out: MIC, TetM induced): 4 µg/mL
MIC ([10]; read-out: MIC, Uninduced): 4 µg/mL
Ratio (TetM induced / Uninduced) [10]: 1
Effect of expression of (tet)M on activity ([10]; result in words): unaffected

SMILES: CN(C)[C@@H]1C(O)=C(C(N)=O)C(=O)[C@@]2(O)C(O)=C3C(=O)c4c(O)c(NC(=O)CNC(C)(C)C)nc(F)c4C[C@H]3C[C@@H]12 [Compound 120]
TnT IC50 [6]: 0.36 µg/mL
IC50, in vitro transcription/translation system [6]: sub-μg/ml

SMILES: CN(C)[C@@H]1C(O)=C(C(N)=O)C(=O)[C@@]2(O)C(O)=C3C(=O)c4c(O)c(NC(=O)CNC(C)(C)C)nc(Cl)c4C[C@H]3C[C@@H]12 [Compound 132]
TnT IC50 [6]: 0.78 µg/mL
IC50, in vitro transcription/translation system [6]: sub-μg/ml

MIC [11, 21]: 1 µg/mL (≈ 2.22 µM)
MIC [12]: 32 µg/mL (≈ 71.1 µM)
MIC [13]: 32 µg/mL (≈ 71.1 µM)
MIC [14]: 32 µg/mL (≈ 71.1 µM)
MIC [15, 22]: > 32 µg/mL
MIC [16, 23]: 1 µg/mL (≈ 2.22 µM)
MIC [17]: 32 µg/mL (≈ 71.1 µM)
MIC [2, 24]: 2 µg/mL (≈ 4.45 µM)
MIC [18, 25]: > 32 µg/mL
SMILES: CN(C)[C@@H]1C(O)=C(C(N)=O)C(=O)[C@@]2(O)C(O)=C3C(=O)c4c(O)cnc(Cl)c4C[C@H]3C[C@@H]12 [Compound 123]

SMILES: CCCc1nc(Cl)c2c(c1O)C(=O)C1=C(O)[C@]3(O)C(=O)C(C(N)=O)=C(O)[C@@H](N(C)C)[C@@H]3C[C@@H]1C2 [Compound 104]
TnT IC50 [6]: 5.3 µg/mL

SMILES: C[C@H]1COc2c(N3CCN(C)CC3)c(F)cc3c(=O)c(C(=O)O)cn1c23 [Levofloxacine, levofloxacin, reference compound]
MIC ([9]; read-out: MIC, TetK Induced): 0.0156 µg/mL
MIC ([9]; read-out: MIC, Uninduced): 0.0156 µg/mL
MIC ratio, TetK induced to uninduced [9]: 1
MIC ([10]; read-out: MIC, TetM induced): 0.0156 µg/mL
MIC ([10]; read-out: MIC, Uninduced): 0.0156 µg/mL
Ratio (TetM induced / Uninduced) [10]: 1

MIC [11, 21]: 0.06 µg/mL (≈ 0.131 µM)
MIC [12]: 8 µg/mL (≈ 17.5 µM)
MIC [13]: 0.03 µg/mL (≈ 0.0656 µM)
MIC [15, 22]: 16 µg/mL (≈ 35 µM)
MIC [16, 23]: ≤ 0.016 µg/mL
MIC [17]: 2 µg/mL (≈ 4.37 µM)
MIC [2, 24]: 0.5 µg/mL (≈ 1.09 µM)
MIC [18, 25]: 8 µg/mL (≈ 17.5 µM)
SMILES: CN(C)c1ccc(O)c2c1C[C@H]1C[C@H]3[C@H](N(C)C)C(O)=C(C(N)=O)C(=O)[C@@]3(O)C(O)=C1C2=O [minocycline, reference compound]

SMILES: CN(C)[C@@H]1C(O)=C(C(N)=O)C(=O)[C@@]2(O)C(O)=C3C(=O)c4c(O)cccc4[C@@](C)(O)[C@H]3C[C@@H]12 [Tetracycline, tetracycline, reference compound]
MIC [11, 21]: 0.25 µg/mL (≈ 0.563 µM)
MIC ([11]; Table 9, read-out: MIC S. aureus ATCC 29213): 0.5 µg/mL (≈ 1.13 µM)
MIC ([1]; Table 12, read-out: MIC S. aureus ATCC 13709): 0.5 µg/mL (≈ 1.13 µM)
MIC [12]: 64 µg/mL (≈ 144 µM)
MIC [14]: 8 µg/mL (≈ 18 µM)
MIC [15, 22]: 64 µg/mL (≈ 144 µM)
MIC ([15]; Table 9, read-out: MIC E. faecalis EF159 (tet)M): > 32 µg/mL
MIC [16, 23]: 0.063 µg/mL (≈ 0.142 µM)
MIC ([16]; ATCC49619, Table 9, read-out: MIC S. pneum ATCC 49619): 0.25 µg/mL (≈ 0.563 µM)
MIC [18, 25]: > 64 µg/mL
MIC ([18]; Table 9, read-out: MIC E. coli EC155 (tet)A): > 32 µg/mL
MIC ([9]; read-out: MIC, TetK Induced): > 32 µg/mL
MIC ([10]; read-out: MIC, TetM induced): > 32 µg/mL
MIC Range ([19]; H. influenzae (n = 12)): 0.25 to 16 µg/mL
MIC50 ([19]; Haemophilus influenzae): 0.5 µg/mL (≈ 1.13 µM)
MIC Range ([20]; S. aureus (n = 20)): 0.06 to 32 µg/mL
MIC50 ([20]; Staphylococcus aureus): 0.13 µg/mL (≈ 0.293 µM)
MIC90 ([20]; Staphylococcus aureus): 0.25 µg/mL (≈ 0.563 µM)
PD50 [7]: 17.0 mg/kg
PD50 [8]: 0.35 mg/kg
